Among the data in PubChem BioAssay (NCI) are TGI values, retold here.

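Five concentrations, 48 hours, 96-well plates. At the TGI there is no net growth.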

One test concerns SK-MEL-28 melanoma. Briefly: NCI anticancer screen, dose series, 48 h.
In turn, `COc1cc(C2SCC(=O)N2c2ccc(Cl)c(Cl)c2)cc(OC)c1OC` (configuration not stated) registered a TGI above 100 µM.

Compound `C[C@H]1C2Cc3cc(N)ccc3[C@@]1(C)CCN2CCc1ccccc1` had a TGI above 100 µM.

The compound `CC(/C=N\NC(=S)N1CCCCC1)=N/NC(=S)N1CCCCC1` gave a TGI of 18.1 µM.

In turn, `CC1C[C@]2(C)C(=O)Nc3ccccc3[C@@H]2Nc2ccccc21` (some centres not stated) had a TGI of 95.5 µM.

Consider `CCCCCC(/C=C/C1CCC(=O)C1CC#C[Si](C)(C)C)OCc1ccccc1` (configuration not stated), for which the TGI is above 58 µM.

In turn, `O=S(=O)(O)c1ccc(N=Nc2ccc(N=Nc3c(O)ccc4ccccc34)cc2)cc1` returned a TGI above 100 µM.

The next test relates to HOP-92 NSCLC. Briefly: NCI anticancer screen, dose series, 48 h.
The compound `CCCCn1c(C)c2c(c1C)C(=O)N(CC(O)CN1CCc3ccccc3C1)C2=O` (configuration not stated) gave a TGI above 100 µM.

As for `Cc1cc(C)nc(NS(=O)(=O)c2ccc(NNC(=O)c3cccc4c(=O)c5ccccc5[nH]c34)cc2)n1`, the TGI was 73.8 µM.

With `S=c1[nH]n2c(COc3cccc(OCc4nnc5sc(=S)[nH]n45)c3)nnc2s1`, the TGI is above 100 µM.

As for `CN1CCN(CN2C(=O)C3C4C=CC(C3C2=O)C2C(=O)N(CN3CCN(C)CC3)C(=O)C42)CC1` (configuration not stated), the TGI is above 100 µM.

In turn, `CC(C)(C)c1cc(C(CO)OCCOCCO)cc(C(C)(C)C)c1O` (configuration not stated) came in with a TGI above 100 µM.

Turning to `COc1cc(C2SCC(=O)N2c2ccc(Cl)c(Cl)c2)cc(OC)c1OC` (configuration not stated), the TGI is above 100 µM.

Compound `C[C@H]1C2Cc3cc(N)ccc3[C@@]1(C)CCN2CCc1ccccc1` registered a TGI of 90.9 µM.

In turn, `CC(/C=N\NC(=S)N1CCCCC1)=N/NC(=S)N1CCCCC1` returned a TGI of 7.48 µM.

On to `CC1C[C@]2(C)C(=O)Nc3ccccc3[C@@H]2Nc2ccccc21` (some centres not stated), for which the TGI amounted to 27.6 µM.

In the case of `CCCCCC(/C=C/C1CCC(=O)C1CC#C[Si](C)(C)C)OCc1ccccc1` (configuration not stated), the TGI worked out at 17.2 µM.

`O=S(=O)(O)c1ccc(N=Nc2ccc(N=Nc3c(O)ccc4ccccc34)cc2)cc1` yielded a TGI above 100 µM.

The subject of a further test is UO-31 renal. Briefly: NCI anticancer screen, dose series, 48 h.
Take `CCCCn1c(C)c2c(c1C)C(=O)N(CC(O)CN1CCc3ccccc3C1)C2=O` (configuration not stated): the TGI was above 100 µM.

With `Cc1cc(C)nc(NS(=O)(=O)c2ccc(NNC(=O)c3cccc4c(=O)c5ccccc5[nH]c34)cc2)n1`, the TGI is above 100 µM.

With `S=c1[nH]n2c(COc3cccc(OCc4nnc5sc(=S)[nH]n45)c3)nnc2s1`, the TGI is above 100 µM.

Compound `CN1CCN(CN2C(=O)C3C4C=CC(C3C2=O)C2C(=O)N(CN3CCN(C)CC3)C(=O)C42)CC1` (configuration not stated) returned a TGI above 100 µM.

Regarding `CC(C)(C)c1cc(C(CO)OCCOCCO)cc(C(C)(C)C)c1O` (configuration not stated), the TGI was above 100 µM.

In the case of `COc1cc(C2SCC(=O)N2c2ccc(Cl)c(Cl)c2)cc(OC)c1OC` (configuration not stated), the TGI is above 100 µM.

For the compound `C[C@H]1C2Cc3cc(N)ccc3[C@@]1(C)CCN2CCc1ccccc1`, the TGI was above 100 µM.

Compound `CC(/C=N\NC(=S)N1CCCCC1)=N/NC(=S)N1CCCCC1` came in with a TGI of 7.19 µM.

As to `CC1C[C@]2(C)C(=O)Nc3ccccc3[C@@H]2Nc2ccccc21` (some centres not stated), the TGI is above 100 µM.

On to `CCCCCC(/C=C/C1CCC(=O)C1CC#C[Si](C)(C)C)OCc1ccccc1` (configuration not stated), for which the TGI worked out at 34.3 µM.

`O=S(=O)(O)c1ccc(N=Nc2ccc(N=Nc3c(O)ccc4ccccc34)cc2)cc1` registered a TGI above 100 µM.

Another test concerns HCT-116 colon. Briefly: NCI anticancer screen, dose series, 48 h.
In turn, `CCCCn1c(C)c2c(c1C)C(=O)N(CC(O)CN1CCc3ccccc3C1)C2=O` (configuration not stated) had a TGI above 100 µM.

`Cc1cc(C)nc(NS(=O)(=O)c2ccc(NNC(=O)c3cccc4c(=O)c5ccccc5[nH]c34)cc2)n1` displayed a TGI above 100 µM.

`S=c1[nH]n2c(COc3cccc(OCc4nnc5sc(=S)[nH]n45)c3)nnc2s1` came in with a TGI above 100 µM.

Take `CN1CCN(CN2C(=O)C3C4C=CC(C3C2=O)C2C(=O)N(CN3CCN(C)CC3)C(=O)C42)CC1` (configuration not stated): the TGI is above 62.1 µM.

For the compound `CC(C)(C)c1cc(C(CO)OCCOCCO)cc(C(C)(C)C)c1O` (configuration not stated), the TGI is above 100 µM.

Turning to `COc1cc(C2SCC(=O)N2c2ccc(Cl)c(Cl)c2)cc(OC)c1OC` (configuration not stated), the TGI is above 100 µM.

As to `C[C@H]1C2Cc3cc(N)ccc3[C@@]1(C)CCN2CCc1ccccc1`, the TGI was above 100 µM.

In the case of `CC(/C=N\NC(=S)N1CCCCC1)=N/NC(=S)N1CCCCC1`, the TGI came to 6.19 µM.

Regarding `CC1C[C@]2(C)C(=O)Nc3ccccc3[C@@H]2Nc2ccccc21` (some centres not stated), the TGI amounted to 33.6 µM.

`CCCCCC(/C=C/C1CCC(=O)C1CC#C[Si](C)(C)C)OCc1ccccc1` (configuration not stated) yielded a TGI of 34.9 µM.

With `O=S(=O)(O)c1ccc(N=Nc2ccc(N=Nc3c(O)ccc4ccccc34)cc2)cc1`, the TGI was above 100 µM.

The test system of the next test is RPMI-8226 leukemia. Briefly: NCI anticancer screen, dose series, 48 h.
Compound `CCCCn1c(C)c2c(c1C)C(=O)N(CC(O)CN1CCc3ccccc3C1)C2=O` (configuration not stated) gave a TGI above 100 µM.

On to `Cc1cc(C)nc(NS(=O)(=O)c2ccc(NNC(=O)c3cccc4c(=O)c5ccccc5[nH]c34)cc2)n1`, for which the TGI is above 100 µM.

In the case of `S=c1[nH]n2c(COc3cccc(OCc4nnc5sc(=S)[nH]n45)c3)nnc2s1`, the TGI was above 100 µM.

`CN1CCN(CN2C(=O)C3C4C=CC(C3C2=O)C2C(=O)N(CN3CCN(C)CC3)C(=O)C42)CC1` (configuration not stated) came in with a TGI of 51.4 µM.

`CC(C)(C)c1cc(C(CO)OCCOCCO)cc(C(C)(C)C)c1O` (configuration not stated): the TGI is above 100 µM.

`COc1cc(C2SCC(=O)N2c2ccc(Cl)c(Cl)c2)cc(OC)c1OC` (configuration not stated) yielded a TGI above 78.6 µM.

Compound `C[C@H]1C2Cc3cc(N)ccc3[C@@]1(C)CCN2CCc1ccccc1` had a TGI above 100 µM.

Consider `CC(/C=N\NC(=S)N1CCCCC1)=N/NC(=S)N1CCCCC1`, for which the TGI was above 100 µM.

In turn, `CC1C[C@]2(C)C(=O)Nc3ccccc3[C@@H]2Nc2ccccc21` (some centres not stated) gave a TGI of 59.5 µM.

Compound `CCCCCC(/C=C/C1CCC(=O)C1CC#C[Si](C)(C)C)OCc1ccccc1` (configuration not stated) had a TGI of 44.3 µM.

With `O=S(=O)(O)c1ccc(N=Nc2ccc(N=Nc3c(O)ccc4ccccc34)cc2)cc1`, the TGI is above 100 µM.

For another test, the system named is SNB-19 CNS. Briefly: NCI anticancer screen, dose series, 48 h.
`CCCCn1c(C)c2c(c1C)C(=O)N(CC(O)CN1CCc3ccccc3C1)C2=O` (configuration not stated): the TGI was above 100 µM.

As for `Cc1cc(C)nc(NS(=O)(=O)c2ccc(NNC(=O)c3cccc4c(=O)c5ccccc5[nH]c34)cc2)n1`, the TGI was above 100 µM.
